Test system: 13 viruses and variants
Assay: organism not typed
Type: cell-based

## Cc1c(-c2ccc(O)cc2)n(Cc2ccc(OCCN3CCCCC3)cc2)c2ccc(O)cc12 [Pipendoxifene]
  potency: submicromolar potency
